The record followed here is patent US11413289B2 (Aerovate Therapeutics, Inc., priority 2019, dated 2022).

The data set can be described thus: Thermal stability and polymorphism of imatinib salts. It counts as physicochemical.

Turning to tartrate, the “thermal stability and polymorphic forms” value is “suitable thermal stability and few or single polymorphic forms”.
Then malate, with “suitable thermal stability and few or single polymorphic forms”; and `O=S(=O)(O)CCO` [isethionate], with “suitable thermal stability and few or single polymorphic forms”.
Consider malonate, for which the “thermal stability and polymorphic forms” value is “suitable thermal stability and few or single polymorphic forms”.
